According to patent US20210222105A1, “A Microfluidic Cartridge, A Kit And An Assay” (CENTRE FOR CELLULAR AND MOLECULAR PLATFORMS, priority 2018, published 2021):

What was measured:
Assay type in all cases: cell-based, Escherichia coli
E. coli ATCC 25922 = test: Agent susceptibility phenotypic assay, microfluidic cartridge compared with 96 well plate; conditions: 0.5, 1, 2 and 4 μg/ml tested; 0.5 MCF inoculum; cation adjusted Muller Hinton broth; FIG. 14
Protocol: The agent susceptibility assay was carried out in a microfluidic cartridge. This assay was also carried out in a micro-titer plate as a standard reference control. Bacterial/clinical sample grown at suitable turbidity or at least about 0.3 to about 1.0 McFarland unit was transferred to the microchamber. The microchamber had microbial growth sensors (pH sensor) at concentration of about 5 μM to about 50 μM, cation adjusted Muller Hinton broth or suitable microbial growth media, and antibiotics concentration based on CLSI guidelines. The total reaction volume range was from about 6 μl to about 150 μl. Plate/test card were sealed using plate sealer or lamination film and incubated at about 32° C. to about 37° C., at about 300-500 rpm orbital shaking. The change in the fluorescence intensity of pH sensors was measured using fluorescence reader after every 20-60 minutes till about 4-7 hours incubation period. Thus, the susceptibility or resistance of the microorganism was assessed towards the agent.
Agent susceptibility was tested on microfluidic cartridge and the outcome compared with optimized 96 well plate. Phenotypic assay was optimized on 96 well pate, briefly, an overnight grown E. coli ATCC25922 culture was dispersed in cation adjusted muller Hinton broth to prepare inoculum of 0.5 MCF unit.

[1] = test system: E. coli ATCC 25922 QC strain; test: Qualitative phenol red colour-change test of microbial growth in microfluidic cartridge and 96 well plate; conditions: 37° C., results in 3 hour, FIG. 15
Protocol: Qualitative test was performed to check microbial growth in the microfluidic cartridge. Phenol red (about 0.05% w/v) containing cation adjusted Muller Hinton broth was used as susceptibility indicator. Microbial growth changes pH and Phenol red changes color with pH variation. Thus, a colour change could provide a read-out on the susceptibility or resistance of a microorganism. No color change would indicate no growth as a response to antibiotics. Briefly, microfluidic cartridge was cleaned with water and then rinsed with 70% ethanol and then UV sterilized by exposing under UV light for about 30 minutes. To compare the susceptibility test preformed on the microfluidic cartridge and 96 well plate, master mix of about 150 μl was prepared on 96 well plate and 6 μl o the master mix was used in microchamber of the microfluidic cartridge. Both 96 well plate and microfluidic cartridge was sealed with lamination film and incubated at 37° C. and change in color intensity was recorded (illustrated in FIG. 15). […] The results were obtained in 3 hour and design of the microfluidic cartridge was suitable for microbial growth and no cross contamination was observed.

E. coli = test: Agent susceptibility test in microfluidic cartridge with DNA-based pH sensor (FRET, donor fluorescence); conditions: 5×10^5 CFU/ml, 37° C., up to 6 hour incubation, FIGS. 17, 19
Protocol: About 5 μM sensor was prepared and stored at about 4° C. overnight for equilibration of the sensors. Overnight grown cultures of E. coli, S. aureus, E. faecalis was picked from LB agar plate and dispersed in cation adjusted Mueller Hinton broth with 1% glucose. The concentration of the cells were adjusted to 0.5 MFU. antibiotic dilution was prepared according to CSI guidelines. Stock solutions were prepared in 96 well plate using 23 μl of cation adjusted Muller Hinton broth, 25 μl of desired concentration of antibiotic and 2 μl of 5 μM sensors. Then 50 μl of 1×10^6 CFU/ml inoculum was added in wells to achieve inoculum size 5×10^5 CFU/ml in final assay volume. Each stock solution was loaded on microfluidic cartridge. Microfluidic cartridge was sealed with polypropylene sealing film and incubated at 37° C. with 70% humidity. The change in the donor fluorescence intensity was recorded till 6 hour incubation. Each microchamber of the microfluidic cartridge was image using 1×73 Olympus inverted fluorescence microscope. Images were analyzed using ImageJ version 1.8.0. the average was taken over replicate and standard deviation was calculated (illustrated in FIG. 18).

SMILES | amikacin concentration at which E. coli ATCC 25922 showed susceptibility (E. coli ATCC 25922) [µg/mL] | change in colour of indicator dye (phenol red) ([1]; amikacin concentration above 2 μg/ml) | change in colour of indicator dye (phenol red) ([1]; at 0.5 and 1 ug/ml amikacin) | sensitivity cut of value (E. coli)
NCC[C@H](O)C(=O)N[C@@H]1C[C@H](N)[C@@H](O[C@H]2O[C@H](CN)[C@@H](O)[C@H](O)[C@H]2O)[C@H](O)[C@H]1O[C@H]1O[C@H](CO)[C@@H](O)[C@H](N)[C@H]1O [amikacin] | 2 | no change in the color intensity | change in the color of indicator dye | 
CCN1CCN(C(=O)N[C@@H](C(=O)N[C@@H]2C(=O)N3[C@@H]2SC(C)(C)[C@@H]3C(=O)O)c2ccccc2)C(=O)C1=O [piperacillin] |  |  |  | about 2 μg/ml
